Source: ChEMBL document CHEMBL4118173, “Discovery of benzimidazole derivatives as orally active renin inhibitors: Optimization of 3,5-disubstituted piperidine to improve pharmacokinetic profile” (Bioorg Med Chem, 2018)
Numbering of substitutions follows the chain as printed. Active and inactive are the calls of the source. The calls are words filed in the database; no cut-off is given here.

Experiments:
[1] = in vivo; conditions: rat, iv
Description: Clearance in rat at 0.1 mg/kg, iv or 1 mg/kg, po administered as cassette dose by LC-MS/MS analysis

[2] = target: T1, Renin (Homo sapiens, UniProt P00797)
T1 sequence (P00797 whole entry): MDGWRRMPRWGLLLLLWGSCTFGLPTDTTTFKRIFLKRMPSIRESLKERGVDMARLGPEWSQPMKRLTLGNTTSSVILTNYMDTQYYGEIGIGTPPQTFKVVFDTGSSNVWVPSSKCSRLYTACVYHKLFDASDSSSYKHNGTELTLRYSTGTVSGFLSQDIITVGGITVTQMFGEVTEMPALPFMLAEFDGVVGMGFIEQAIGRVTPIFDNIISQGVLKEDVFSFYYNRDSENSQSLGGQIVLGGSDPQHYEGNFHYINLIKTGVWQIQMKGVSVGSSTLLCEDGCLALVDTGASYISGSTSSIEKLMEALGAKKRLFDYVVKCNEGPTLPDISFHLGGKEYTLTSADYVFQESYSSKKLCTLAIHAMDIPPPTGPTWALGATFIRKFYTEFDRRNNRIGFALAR
Description: Inhibition of renin in human plasma by radioimmunoassay

[3] = physchem; conditions: 1-octanol/aqueous buffer, pH 7.4
Description: 1-octanol/aqueous buffer partition coefficient, log D of the compound at pH 7.4 by UV-vis/HPLC method

[4] = in vitro; conditions: PAMPA, pH 7.4
Description: Permeability of the compound at pH 7.4 buffer after 3 hrs by PAMPA

[5] = in vivo; conditions: rat, iv, 0.1 mg/kg
[6] = target: T1, Renin; remark: listed apart in the source
Description: Inhibition of recombinant human renin using angiotensinogen as substrate pretreated for 10 mins followed by substrate addition measured after 30 mins in presence of human serum albumin by ELISA

[7] = in vivo; conditions: rat, po, 1 mg/kg
[8] = target: T1, Renin; remark: listed apart in the source
Description: Inhibition of recombinant human renin using angiotensinogen as substrate pretreated for 10 mins followed by substrate addition measured after 30 mins in absence of human serum albumin by ELISA

[9] = species on record: Rattus norvegicus; conditions: in vivo, po, 1 mg/kg
[10] = Oral bioavailability in cynomolgus monkey at 1 mg/kg administered as cassette dose by LC-MS/MS analysis; format: ADME, organism-based, Macaca fascicularis; conditions: in vivo
[11] = target: T2, Renin (Macaca mulatta, UniProt Q6DLW5)
T2 sequence (Q6DLW5 whole entry): T1 sequence (P00797 whole entry) with T68A, I214L, S235A, Q270P, R406H
Description: Inhibition of renin in monkey plasma

[12] = target: T3, Renin (Rattus norvegicus, UniProt P08424)
T3 sequence (P08424 whole entry): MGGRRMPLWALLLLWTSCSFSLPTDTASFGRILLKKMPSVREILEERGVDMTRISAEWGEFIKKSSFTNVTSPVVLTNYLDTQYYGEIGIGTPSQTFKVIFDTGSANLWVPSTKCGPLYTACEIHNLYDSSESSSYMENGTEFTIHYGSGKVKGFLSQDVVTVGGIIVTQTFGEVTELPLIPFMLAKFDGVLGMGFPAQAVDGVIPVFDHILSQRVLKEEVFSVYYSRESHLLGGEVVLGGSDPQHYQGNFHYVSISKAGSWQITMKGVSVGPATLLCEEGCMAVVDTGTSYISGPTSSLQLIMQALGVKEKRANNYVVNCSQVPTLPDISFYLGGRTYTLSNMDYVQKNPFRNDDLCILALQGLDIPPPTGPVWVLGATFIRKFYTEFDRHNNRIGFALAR
Description: Inhibition of renin in rat plasma

[13] = in vivo; conditions: rat, po, 1 mg/kg; remark: listed apart in the source
[14] = AUC in cynomolgus monkey at 1 mg/kg, po administered as cassette dose by LC-MS/MS analysis; format: ADME, organism-based, Macaca fascicularis; conditions: in vivo
[15] = AUC in cynomolgus monkey at 0.1 mg/kg, iv administered as cassette dose by LC-MS/MS analysis; format: ADME, organism-based, Macaca fascicularis; conditions: in vivo
[16] = system: Cynomolgus monkey; assay: In vivo inhibition of plasma renin in po dosed cynomolgus monkey measured at 4 and 24 hrs post dose by radioimmunoassay; format: functional, organism-based; conditions: Macaca fascicularis
[17] = Tmax in cynomolgus monkey at 0.1 mg/kg, iv or 1 mg/kg, po administered as cassette dose by LC-MS/MS analysis; format: ADME, organism-based, Macaca fascicularis; conditions: in vivo
[18] = Cmax in cynomolgus monkey at 0.1 mg/kg, iv or 1 mg/kg, po administered as cassette dose by LC-MS/MS analysis; format: ADME, organism-based, Macaca fascicularis; conditions: in vivo
[19] = Clearance in cynomolgus monkey at 0.1 mg/kg, iv or 1 mg/kg, po administered as cassette dose by LC-MS/MS analysis; format: ADME, organism-based, Macaca fascicularis; conditions: in vivo
[20] = system: Rattus norvegicus; assay: Metabolic stability in rat at 0.1 mg/kg, iv or 1 mg/kg, po administered as cassette dose by LC-MS/MS analysis; format: ADME, organism-based; conditions: in vivo
[21] = system: Cynomolgus monkey; conditions: Macaca fascicularis; Plasma; 5 to 15 mg/kg
[22] = system: Cynomolgus monkey; conditions: Macaca fascicularis; Plasma; 15 mg/kg

clearance [1] | IC50 [2] | logD [3] | Papp at 3 h [4] | AUC [5] | IC50 [6] | bioavailability [7] | IC50 [8] | AUC [13] | SMILES | also measured
96.7 mL/min/kg | 2.8 nM | 2.03 | 7.2 ×10⁻⁶ cm/s | 17.6 ng·h/mL | 3.3 nM | < 1% | 4.4 nM | – | COCCCCn1c(C(=O)N(CC(C)C)[C@@H]2CNC[C@H](C(=O)N3CCOCC3)C2)cnc1-c1ccccc1 | –
– | > 10 nM | 1.73 | 5.5 ×10⁻⁶ cm/s | – | 21 nM | – | 16 nM | – | CCn1c(C(=O)N(CC(C)C)[C@@H]2CNC[C@H](CO)C2)nc2ccccc21 | –
112 mL/min/kg | 1.2 nM | 1.79 | 11.6 ×10⁻⁶ cm/s | 15.3 ng·h/mL | 1.8 nM | < 1% | 1.4 nM | – | COCCCCn1c(C(=O)N(CC(C)C)[C@@H]2CNC[C@H](C(=O)N3CCOCC3)C2)nnc1-c1ccccc1 | –
– | 2.6 nM | 1.98 | 20.2 ×10⁻⁶ cm/s | – | 1.5 nM | – | 0.72 nM | – | COCCCCn1c(C(=O)N(CC(C)C)[C@@H]2CNC[C@H](C(C)(C)O)C2)nc2ccccc21 | –
– | – | 4.77 | 43.5 ×10⁻⁶ cm/s | 42 ng·h/mL | – | – | – | – | CCCCCCc1nc(C(C)(C)C)ncc1C(=O)N(CC(C)C)[C@@H]1CNC[C@H](C(=O)N2CCOCC2)C1 | AUC [9]: 20.9 ng·h/mL
25.9 mL/min/kg | – | 2.11 | 34.5 ×10⁻⁶ cm/s | 68 ng·h/mL | – | 14% | – | 92.2 ng·h/mL | COCCCCn1c(C(=O)N(CC(C)C)[C@@H]2CNC[C@H](C(=O)N3CCOCC3)C2)nc2ccccc21 | bioavailability [10]: 25%; IC50 [11]: 1.5 nM; IC50 [12]: 310 nM; AUC [14]: 323 ng·h/mL; AUC [15]: 128 ng·h/mL; inhibition [16]: Dose-dependent effect; Tmax [17]: 1.67 h; Cmax [18]: 29.1 ng/mL; clearance [19]: 14.2 mL/min/kg
62.4 mL/min/kg | 5.4 nM | 4.45 | 25.2 ×10⁻⁶ cm/s | 27.3 ng·h/mL | 0.64 nM | < 1% | 0.2 nM | – | CCCCCNc1nc(C(C)(C)C)ncc1C(=O)N(CC(C)C)[C@@H]1CNC[C@H](C(=O)N2CCOCC2)C1 | –
33 mL/min/kg | 9.1 nM | 2 | 32.4 ×10⁻⁶ cm/s | 52.1 ng·h/mL | 1.6 nM | 12% | 0.9 nM | 59.7 ng·h/mL | COCCCCn1c(C(=O)N(CC(C)C)[C@H]2CCCNC2)nc2ccccc21 | –
92.4 mL/min/kg | 0.4 nM | 1.94 | 36.9 ×10⁻⁶ cm/s | 18.4 ng·h/mL | 0.65 nM | 1.9% | 1 nM | 3.5 ng·h/mL | COCCCCc1c(C(=O)N(CC(C)C)[C@@H]2CNC[C@H](C(=O)N3CCOCC3)C2)nnn1-c1ccccc1 | –
80.4 mL/min/kg | 1.3 nM | 1.78 | 7.8 ×10⁻⁶ cm/s | 20.8 ng·h/mL | 1.2 nM | 0.3% | 1.1 nM | 0.7 ng·h/mL | COCCCCc1c(C(=O)N(CC(C)C)[C@@H]2CNC[C@H](C(=O)N3CCOCC3)C2)cnn1-c1ccccc1 | –
121 mL/min/kg | – | 2.99 | 39 ×10⁻⁶ cm/s | 14.1 ng·h/mL | – | < 1% | – | – | COCCCNc1nc(C(C)(C)C)ncc1C(=O)N(CC(C)C)[C@@H]1CNC[C@H](C(=O)N2CCOCC2)C1 | Stability [20]: Stable
39 mL/min/kg | 1.1 nM | 1.54 | 6.3 ×10⁻⁶ cm/s | 43.5 ng·h/mL | 2.1 nM | 2.2% | 1.6 nM | 9.5 ng·h/mL | COCCCCc1c(C(=O)N(CC(C)C)[C@@H]2CNC[C@H](C(=O)N3CCOCC3)C2)nc2ccccn12 | –
34.2 mL/min/kg | 4 nM | 1.74 | 6 ×10⁻⁶ cm/s | 50.7 ng·h/mL | 0.59 nM | 8.2% | 0.76 nM | 41.7 ng·h/mL | CC(C)CN(C(=O)c1nc2ccccc2[nH]1)[C@@H]1CNC[C@H](C(=O)N2CCOCC2)C1 | –
– | – | 2.81 | 27.2 ×10⁻⁶ cm/s | – | > 100 nM | – | > 100 nM | – | COCCCOc1nc(C(C)(C)C)ncc1C(=O)N(CC(C)C)[C@@H]1CNC[C@H](C(=O)N2CCOCC2)C1 | –
38.5 mL/min/kg | 1.3 nM | 1.79 | 24.2 ×10⁻⁶ cm/s | 43.4 ng·h/mL | 0.89 nM | 14% | 0.66 nM | 58.9 ng·h/mL | CCn1c(C(=O)N(CC(C)C)[C@@H]2CNC[C@H](C(=O)N3CCOCC3)C2)nc2ccccc21 | –
– | – | 2.73 | – | – | 3.6 nM | – | 2 nM | – | COCCCCn1nc(C(C)(C)C)cc1C(=O)N(CC(C)C)[C@@H]1CNC[C@H](C(=O)N2CCOCC2)C1 | –
127 mL/min/kg | 1.2 nM | 1.84 | 7.8 ×10⁻⁶ cm/s | 13.3 ng·h/mL | 1.1 nM | < 1% | 0.83 nM | – | COCCCCc1c(C(=O)N(CC(C)C)[C@@H]2CNC[C@H](C(=O)N3CCOCC3)C2)ncn1-c1ccccc1 | –
– | – | 2.12 | – | – | 35 nM | – | 48 nM | – | COCCCCn1c(C(=O)N(CC(C)C)[C@@H]2CNC[C@H](C(=O)N3CCOCC3)C2)cnc1C(C)(C)C | –
15.5 mL/min/kg | 1.5 nM | 1.77 | 8.2 ×10⁻⁶ cm/s | 108 ng·h/mL | 0.32 nM | 9.6% | 0.28 nM | 103 ng·h/mL | COCCCCn1c(C(=O)N(CC(C)C)[C@@H]2CNC[C@H](CO)C2)nc2ccccc21 | –
38.9 mL/min/kg | 2.9 nM | 1.71 | 27.4 ×10⁻⁶ cm/s | 43.9 ng·h/mL | 0.66 nM | 17% | 0.63 nM | 74.2 ng·h/mL | CC(C)CN(C(=O)c1nc2ccccc2n1C)[C@@H]1CNC[C@H](C(=O)N2CCOCC2)C1 | –
49.5 mL/min/kg | 3.4 nM | 3.08 | 21.7 ×10⁻⁶ cm/s | 34.6 ng·h/mL | 1.4 nM | 5.4% | 0.16 nM | 18.5 ng·h/mL | COCCCCn1c(C(=O)N(CC(C)C)[C@@H]2CNC[C@H](C(=O)N3CCOCC3)C2)ccc1-c1ccccc1 | –
– | – | 2.68 | – | – | > 100 nM | – | > 100 nM | – | COCCCCn1nc(-c2ccccc2)cc1C(=O)N(CC(C)C)[C@@H]1CNC[C@H](C(=O)N2CCOCC2)C1 | –
– | 3.3 nM | – | – | – | 2.7 nM | – | 2.2 nM | – | COCCCCc1c(C(=O)N(CC(C)C)[C@@H]2CNC[C@H](C(=O)N3CCOCC3)C2)nc2n1CCCC2 | –
– | – | – | – | – | – | – | – | – | COCCCOc1cc(C[C@@H](C[C@H](N)[C@@H](O)C[C@H](C(=O)NCC(C)(C)C(N)=O)C(C)C)C(C)C)ccc1OC | bioavailability [10]: 0.6%; inhibition [21]: Active; AUC [14]: 25.9 ng·h/mL; AUC [15]: 501 ng·h/mL; Tmax [17]: 3.33 h; inhibition [22]: Active; Cmax [18]: 3.5 ng/mL; clearance [19]: 3.37 mL/min/kg
